Patent publication US9719110B2, “Method of increasing production of amorpha-4,11-diene and method of increasing production of natural rubber” (SUMITOMO RUBBER INDUSTRIES, LTD., priority 2014, dated 2017)

What was measured:
35S:ADS A. thaliana = test: amorpha-4,11-diene production in 35S:ADS A. thaliana seedlings cultured in MS liquid medium with inhibitor (GC-MS); format: in vivo, Arabidopsis thaliana
Description: The following experiment was performed to confirm that the attachment of the enzyme inhibitor squalestatin (squalene synthase inhibitor) had the effect of increasing production of amorpha-4,11-diene on 35S:ADS A. thaliana, which is an Arabidopsis thaliana into which had been introduced a gene encoding amorphadiene synthase (ADS).
The 35S:ADS A. thaliana is Arabidopsis thaliana in which a gene encoding ADS derived from Artemisia annua is overexpressed. It is properly managed as 433 7-5 line in Cell Technology Laboratory, Division of Advanced Science and Biotechnology, Graduate School of Engineering, Osaka University.
In order to sterilize 35S:ADS A. thaliana seeds, the seeds were immersed in a seed sterilization water (0.25% sodium hypochlorite solution, 1% SDS) for 20 minutes and then washed with sterilized water four times.
The seeds were plated on MS agar medium (Murashige and Skoog medium, including 4.4 g/L vitamins, 10 g/L sucrose, and 10 g/L agar) set to a pH of 5.8.
The plating was followed by vernalization for two or more days at 4° C. Thereafter, the seeds were cultured at 23° C. under long day conditions (16 hours light/8 hours dark) for seven days.
The resulting Arabidopsis thaliana seedlings were transferred to MS liquid media supplemented with squalestatin (SQS inhibitor) at squalestatin concentrations of 0, 1, 3, 5, 10, and 15 μmol/L, followed by further culturing for seven days with shaking at 23° C. under long day conditions (16 hours light/8 hours dark).
Amorpha-4,11-diene was extracted from the Arabidopsis thaliana plants by the following procedure. About 100 mg (wet weight) of Arabidopsis thaliana plants was placed in a mortar, to which was added about 5 mL of n-hexane. After 100 μL of a n-tetradecane solution was added as an internal standard, the mixture was subjected to grinding and extraction. The extract was once recovered, and the residue was combined with another 5 mL of fresh n-hexane, followed by grinding and extraction. The extract from the second extraction was combined with that from the first extraction. This cycle of operation was repeated twice. The resulting extract was passed through an anhydrous sodium sulfate column.
The eluate from the column was concentrated under reduced pressure to about 1 mL using a rotary evaporator, and then dried to a solid with a nitrogen blowing concentrator.
The dried solid was finally combined with 1 mL of n-hexane to prepare a sample for GC-MS analysis.
The GC-MS analysis was performed with a JMS-SUN200 mass spectrometer (JEOL) and a gas chromatograph (6890 series GC system: Agilent Technologies). […]
Instead of squalene synthase (SQS), squalene epoxidase (SQE), which is located one step downstream of SQS, was inhibited, and then the effect of increasing production of amorpha-4,11-diene was evaluated. […]

Taraxacum koksaghyz = test: natural rubber production in Taraxacum koksaghyz sprayed with inhibitor solution (rubber dry weight); format: in vivo
Description: The following experiment was performed to confirm that the attachment of the enzyme inhibitor squalestatin (squalene synthase inhibitor) to the rubber-producing plant Taraxacum koksaghyz had the effect of increasing production of natural rubber.
Taraxacum koksaghyz seeds were vernalized for two or more days at 4° C. and then planted in soil.
After planted in soil, the seeds were grown at 25° C. under 12 h light/12 h dark conditions for five months.
Squalestatin was dissolved at a concentration of 10 μmol/L in 0.1% dimethyl sulfoxide (DMSO) to prepare a squalestatin solution. Two of the thus grown Taraxacum koksaghyz plants were each sprayed with 50 mL of the squalestatin solution once a day for four days using a spray.
As a comparative example, another two Taraxacum koksaghyz individuals were sprayed with 50 mL of a 0.1% dimethyl sulfoxide (DMSO) solution without squalestatin once a day for four days using a spray.
On day 5 after initiation of the treatment, latex was recovered from the Taraxacum koksaghyz roots and immersed in ethanol for five hours to solidify natural rubber.
The solidified natural rubber was dried at room temperature for three days. Thereafter, the dry weight was measured, and the results were compared.

SMILES | amount of amorpha-4,11-diene inside Arabidopsis thaliana plants (35S:ADS A. thaliana; treatment with 3 μmol/L or more of squalestatin, seven-day shake culture, FIG. 2) | Rubber dry weight (Taraxacum koksaghyz; 10 μmol/L in 0.1% DMSO, 50 mL sprayed once a day for four days, latex from roots on day 5, average of two individuals) [mg] | increase in amount of natural rubber recovered versus plants not treated with squalestatin (Taraxacum koksaghyz; 10 μmol/L, sprayed once a day for four days) [times] | amorpha-4,11-diene amount relative to treatment with the same concentration of squalestatin (35S:ADS A. thaliana; 5 μmol/L) | increase in the production of amorpha-4,11-diene (35S:ADS A. thaliana; terbinafine 1, 3 and 5 μmol/L, same procedure as Example 1) | accumulation of amorpha-4,11-diene (35S:ADS A. thaliana; treatment with 5 μmol/L)
C=C(CC[C@]12O[C@H](C(=O)O)[C@@](O)(C(=O)O)[C@](C(=O)O)(O1)[C@H](OC(=O)/C=C/[C@@H](C)C[C@@H](C)CC)[C@H]2O)[C@@H](OC(C)=O)[C@H](C)Cc1ccccc1 [squalestatin] | increase | 4.2 | 2.5 |  |  | 
CN(C/C=C/C#CC(C)(C)C)Cc1cccc2ccccc12 [terbinafine] |  |  |  | a tenth or less | very little increase | about 0.004 μg gFW^-1
